Test results taken from patent US10221162B2, “Triazole agonists of the APJ receptor” (priority 2015, dated 2019).

Tests used:
[1] = system: isolated perfused rat hearts; assay: Ex vivo isolated perfused rat heart (Langendorff) assay; settings: percent change; for Isolated Heart Assay dP/dtmax (%): LV contractility; for Isolated Heart Assay dP/dtmin (%): LV relaxation
heart failure rat model = assay: In vivo cardiac contractility in heart failure (MI) rat model; settings: heart failure rats; for MI Rat Model dP/dtmax (%) / cardiac contractility as measured by dP/dt: acute administration for 30 min; for cardiac contractility as measured by dP/dt: result in words
Procedure: Male Lewis rats (Charles River, USA) at 2-3 months of age were used for the study. […] APJ agonists were administered dose dependently acutely for a period of 30 min.
The interaction between […] (ACE2) and Apelin biology is complicated. To investigate the interaction between the Apelin-APJ and ACE signalling pathways, we examined the improvement in cardiac function with APJ small molecule agonists in the presence of ACE inhibitor captopril in heart failure rats in vivo.

Compound | Isolated Heart Assay dP/dtmax (%) [1] [%] | Isolated Heart Assay dP/dtmin (%) [1] [%] | MI Rat Model dP/dtmax (%) (heart failure rat model) | improvement in contractility or ejection fraction (heart failure rat model; captopril alone, acute settings) | cardiac contractility as measured by dP/dt (heart failure rat model)
COc1cccc(OC)c1-n1c(NS(=O)(=O)[C@H](C)[C@@H](C)c2ncc(Cl)cn2)nnc1-c1cccnc1 (racemic) [Example 694.0, (2R,3S)-3-(5-chloropyrimidin-2-yl)-N-(4-(2,6-dimethoxyphenyl)-5-(pyridin-3-yl)-4H-1,2,4-triazol-3-yl)butane-2-sulfonamide or (2S,3R)-3-(5-chloropyrimidin-2-yl)-N-(4-(2,6-dimethoxyphenyl)-5-(pyridin-3-yl)-4H-1,2,4-triazol-3-yl)butane-2-sulfonamide] | 18.0 | 32.0 | 8% |  | 
COc1cccc(OC)c1-n1c(NS(=O)(=O)[C@@H](C)[C@H](C)c2ncc(F)cn2)nnc1-c1cccnc1 (single isomer, unassigned) [Example 184.0, (2R,3S)-N-(4-(2,6-dimethoxyphenyl)-5-(3-pyridinyl)-4H-1,2,4-triazol-3-yl)-3-(5-fluoro-2-pyrimidinyl)-2-butanesulfonamide or (2S,3R)-N-(4-(2,6-dimethoxyphenyl)-5-(3-pyridinyl)-4H-1,2,4-triazol-3-yl)-3-(5-fluoro-2-pyrimidinyl)-2-butanesulfonamide] | 14.5 | 14.0 |  |  | 
COc1cccc(OC)c1-n1c(NS(=O)(=O)[C@@H](C)[C@H](OC)c2ncc(F)cn2)nnc1-c1cncc(C)c1 (single isomer, unassigned) [Example 242.0] | 5.0 | −2.7 |  |  | 
COc1cccc(OC)c1-n1c(NS(=O)(=O)[C@@H](C)[C@H](OC)c2ncc(F)cn2)nnc1-c1cccnc1 (single isomer, unassigned) [Example 244.0] | 14.0 | 15.0 |  |  | 
COc1cccc(OC)c1-n1c(NS(=O)(=O)[C@H](C)[C@@H](OC)c2ccc(Cl)cn2)nnc1-c1cccnc1 (single isomer, unassigned) [Example 531.0, (1S,2R)-1-(5-chloro-2-pyridinyl)-N-(4-(2,6-dimethoxyphenyl)-5-(3-pyridinyl)-4H-1,2,4-triazol-3-yl)-1-methoxy-2-propanesulfonamide or (1R,2S)-1-(5-chloro-2-pyridinyl)-N-(4-(2,6-dimethoxyphenyl)-5-(3-pyridinyl)-4H-1,2,4-triazol-3-yl)-1-methoxy-2-propanesulfonamide] | 4.1 | 1.9 |  |  | 
COc1cccc(OC)c1-n1c(NS(=O)(=O)[C@H](C)[C@@H](OC)c2ncc(Cl)cn2)nnc1-c1cncc(C)c1 (single isomer, unassigned) [Example 557.0] | 17.0 | 20.0 | No effect |  | 
COc1cnc([C@H](O)[C@@H](C)S(=O)(=O)Nc2nnc(-c3cccnc3)n2-c2c(OC)cccc2OC)cn1 (single isomer, unassigned) [Example 706.0, (1S,2R)-N-(4-(2,6-dimethoxyphenyl)-5-(3-pyridinyl)-4H-1,2,4-triazol-3-yl)-1-hydroxy-1-(5-methoxy-2-pyrazinyl)-2-propanesulfonamide or (1R,2S)-N-(4-(2,6-dimethoxyphenyl)-5-(3-pyridinyl)-4H-1,2,4-triazol-3-yl)-1-hydroxy-1-(5-methoxy-2-pyrazinyl)-2-propanesulfonamide] | 9.1 | 4.0 |  |  | 
COc1ncnc(OC)c1-n1c(NS(=O)(=O)[C@@H](C)[C@H](OC)c2ccc(Cl)cn2)nnc1-c1cccnc1 (single isomer, unassigned) [Example 711.0, (1R,2S)-1-(5-chloro-2-pyridinyl)-N-(4-(4,6-dimethoxy-5-pyrimidinyl)-5-(3-pyridinyl)-4H-1,2,4-triazol-3-yl)-1-methoxy-2-propanesulfonamide or (1S,2R)-1-(5-chloro-2-pyridinyl)-N-(4-(4,6-dimethoxy-5-pyrimidinyl)-5-(3-pyridinyl)-4H-1,2,4-triazol-3-yl)-1-methoxy-2-propanesulfonamide] | 9.4 | 1.1 |  |  | 
C[C@H](CS)C(=O)N1CCC[C@H]1C(=O)O [Captopril] |  |  |  | does not show a marked improvement in contractility or ejection fraction | 
COc1cccc(-c2nnc(NS(=O)(=O)[C@@H](C)[C@H](OC)c3ncc(C)cn3)n2-c2c(OC)cccc2OC)n1 [Example 27.0, (1R,2S)—N-(4-(2,6-dimethoxyphenyl)-5-(6-methoxypyridin-2-yl)-4H-1,2,4-triazol-3-yl)-1-methoxy-1-(5-methylpyrimidin-2-yl)propane-2-sulfonamide] |  |  |  |  | increase in cardiac contractility
CCO[C@H](c1ncc(C)cn1)[C@H](C)S(=O)(=O)Nc1nnc(-c2cccnc2)n1-c1c(OC)cccc1OC [Example 109.0, (1R,2S)-N-(4-(2,6-dimethoxyphenyl)-5-(pyridin-3-yl)-4H-1,2,4-triazol-3-yl)-1-ethoxy-1-(5-methylpyrimidin-2-yl)propane-2-sulfonamide] |  |  |  |  | increase in cardiac contractility
COc1cccc(OC)c1-n1c(NS(=O)(=O)[C@@H](C)[C@H](O)c2ncc(C)cn2)nnc1-c1cncc(C)c1 [Example 371.0, (1R,2S)—N-(4-(2,6-dimethoxyphenyl)-5-(5-methylpyridin-3-yl)-4H-1,2,4-triazol-3-yl)-1-hydroxy-1-(5-methylpyrimidin-2-yl)propane-2-sulfonamide] |  |  |  |  | increase in cardiac contractility
COc1cccc(OC)c1-n1c(NS(=O)(=O)[C@@H](C)[C@H](C)c2ncc(C)cn2)nnc1-c1cccnc1 [Example 586.0, (2S,3R)—N-(4-(2,6-dimethoxyphenyl)-5-(3-pyridinyl)-4H-1,2,4-triazol-3-yl)-3-(5-methyl-2-pyrimidinyl)-2-butanesulfonamide] |  |  |  |  | increase in cardiac contractility
